Results as given in patent US4889917A, “Peptide” (Agency of Industrial Science Technology, Ministry of …, priority 1987, dated 1989).

System: human antibody to the nicotinic acetylcholine receptor
Assay: Adsorption of human anti-nicotinic acetylcholine receptor antibody from myasthenia gravis patient serum; residual antibody in supernatant by Con A method (toxin binding inhibition)
Procedure: In 0.5 ml of serum from a patient of myasthenia gravis, 50 mg of the adsorbent obtained in Referential Example 3(a) (cellulose particles having the peptide immobilized thereon) and not yet subjected to any heat treatment or the adsorbent obtained in Referential Example 3(b) and subjected to a heat treatment was suspended at a temperature of 37° C. for three hours. The resultant suspension was centrifuged to separate a supernatant. The supernatant was tested for the concentration of the human antibody to the nicotinic acetylcholine receptor by the Con A method [Protein, Nucleic Acid and Enzyme, vol. […] To be specific, the specimen was brought into contact sequentially with the nicotinic acetylcholine receptor and a radioisotope-labelled α-bungartoxin. The treated specimen was passed through a column packed with Sepharose having immobilized thereon concanavalin (Con A). By measuring the radioactivity of the column, the amount of the human antibody which was contained in the specimen and which inhibited the union of the α-bungarotoxin with the nicotinic acetylcholine receptor was determined in terms of toxin binding inhibition activity (ratio of decrease of the radioactivity of the column).

NCC(=O)O [Glycine, glycine]
Toxine binding inhibition activity (as E1, adsorbent heat treated at 121° C. for 20 minutes): 45%
Toxine binding inhibition activity (supernatant of 0.5 ml myasthenia gravis serum after 50 mg adsorbent (substance immobilized on cellulose particles), 37° C., three hours, no heat treatment, lower = more antibody adsorbed): 44%
